Measurements: paper PMC7456637, “Pharmacokinetic characterization of fluorocoxib D, a cyclooxygenase-2-targeted optical imaging agent for detection of cancer” (Journal of Biomedical Optics, 2020)
pIC50: −log10 of the molar value. Values joined by “and” are separate entries in the source; they are usually repeats but may differ in a detail not shown here. Equal values may be shown once.

How the values were obtained:
[1] = system: COX-2-expressing head and neck cancer (HNC); assay: Fluorocoxib D uptake in HNC mass during rhinoscopy in a client-owned dog; type: in vivo; settings: for Uptake of fluorocoxib D in HNC during rhinoscopy: 1 mg/kg i.v. over 20 min, half hour uptake, client-owned dog, chondrosarcoma
Protocol: The owners signed a consent form for enrolling their dog for our proof-of principal study. A nine-year old female-spayed Golden Retriever dog weighing 35 kg was presented for an acute onset of unilateral right-sided epistaxis of 5-day duration. Previous medical history included a grade 2 soft tissue sarcoma with a high mitotic index that was completely excised from her ventral neck ∼2 years prior with no signs of regrowth. Rhinoscopy and biopsy procedure in the dog was performed by board-certified veterinary internal specialists (SO and JS) in an accordance with a standard veterinary care and the UT IACUC-approved protocol. Fluorocoxib D was administrated i.v. 1 mg/kg over 20 min using a catheter, followed by a half hour uptake before initiation of rhinoscopy procedure. Rhinoscopy was used to obtain biopsy samples guided by uptaken fluorocoxib D in the computed tomography (CT)-identified head and neck cancer (HNC) mass. Rhinoscopy and biopsy procedures in dog were performed under general anesthesia using a 2.7-mm, 30-deg, 18-cm rigid scope (Karl Storz Veterinary Endoscopy) attached to a TRICAM PDD as described previously[38] using a custom-designed filter system for detection of fluorocoxib D ( λem 645±50 nm ). After complete recovery from the rhinoscopic examination and anesthesia in a quiet room, the client-owned dog was returned to its owners. The heat map images with adjusted hue saturation of fluorocoxib D signal (pink color) from normal tissue (upper three images) and HNC tumor (lower three images) obtained during rhinoscopy were generated using Adobe Photoshop CC2019 software ([…]) in order to better visualize the tumor and its margins. […]
The biopsy samples obtained during rhinoscopy procedures in dogs were formalin-fixed and paraffin-embedded and sectioned at 7-μm thin sections for histology and immunohistochemistry analysis for detection of COX-2 and Ki67 expression as described previously.[38] […] The tissue specimens were evaluated using a Leitz DMRB microscope. […]

[2] = Pilot safety study: complete blood count (CBC); type: in vivo, dog
Protocol: The animal studies were performed in the accordance with the University of Tennessee Institutional Animal Care and Use Committee (UT IACUC)-approved protocols and in an accordance with NIH guidelines. Individually housed research healthy female beagle dogs (Covance Research Product) with weights of 6.7 to 10.3 kg were used to assess the safety and pharmacokinetic parameters of fluorocoxib D administrated a dose of 1 mg/kg over 20 min intravenously (i.v.).
For single dose safety evaluation studies, we administrated fluorocoxib D at 1 mg/kg , i.v. using a preplaced cephalic or saphenous vein catheter over 20 min to six healthy research dogs following protocol as described previously.[38] Briefly, physical examinations for signs of potential drug toxicity were performed before, during, and daily for 3 days after fluorocoxib D administration. Physical assessment included auscultation of heart and lungs, abdominal palpation, body temperature, appetite, attitude, activity levels monitoring, and other health-related events. Hypersensitivity was evaluated by direct observation of each dog during treatment for clinical signs of an allergic reaction (facial swelling, flushing, urticaria, dyspnea, scratching, and changes of heart rates). […] Laboratory evaluations of blood and urine were carried out before and 3 days after fluorocoxib D administration to monitor signs of toxicity. Blood (up to 3 ml) was collected into ethylenediaminetetraacetic acid (EDTA) and heparin-treated tubes, and urine (up to 5 ml) was collected by cystocentesis or from the floor of the runs. The laboratory evaluation consisted of a complete blood count (CBC), serum chemistry profile, and complete urinalysis. The CBC evaluated total white blood cells (WBC) and hematocrit (HCT), in addition to absolute numbers of neutrophils, lymphocytes, monocytes, eosinophils, and platelets. The plasma chemistry profile evaluated blood urea nitrogen (BUN), creatinine, proteins (albumin, globulins, and total proteins), alanine aminotransferase (ALT), total bilirubin, glucose, and electrolytes. The complete urinalysis evaluated urine proteins, glucose, and ketones; a sediment examination and urine-specific gravity were validated as well for any possible signs of renal toxicity of fluorocoxib D. All laboratory tests were carried out at the Veterinary Medical Center of the University of Tennessee in Knoxville.

[3] = system: COX1; settings: cited from earlier work

Structure (SMILES): COc1ccc2c(c1)c(CC(=O)NCCCCNC(=O)c1ccc(C3=c4cc5c6c(c4Oc4c3cc3c7c4CCCN7CCC3)CCC[N+]=6CCC5)cc1)c(C)n2C(=O)c1ccc(Cl)cc1 [Fluorocoxib D, N -[(rhodamin-X-yl)but-4-yl]-2-[1-(4-chlorobenzoyl)-5-methoxy-2-methyl-1H-indol-3-yl]acetamide]
- Uptake of fluorocoxib D in HNC during rhinoscopy [1]: uptake was detected
- Uptake of fluorocoxib D in HNC during rhinoscopy ([1]; listed as fluorocoxib D): Specific uptake of fluorocoxib D was detected
- Tumor-to-normal tissue ratio (T/N ratio) of fluorocoxib D signal ([1]; 1 mg/kg i.v., canine HNC, ImageJ, normal n=804 and tumor ROI n=866): 3.7±0.9
- PLT EST (platelet estimate), After ([2]; 3 days after single dose 1 mg/kg i.v., dog #3, ADQ = adequate): ADQ
- PLT CNT (platelets counts), After ([2]; 3 days after single dose 1 mg/kg i.v., dog #3, reference range 147 to 423): 241000 µL⁻¹
- Abs BAN (absolute band neutrophils), After ([2]; 3 days after single dose 1 mg/kg i.v., dog #6, reference range 0 to 0.3): 0 µL⁻¹
- Abs EOS (absolute eosinophils), After ([2]; 3 days after single dose 1 mg/kg i.v., individual dogs #1-#6, reference range 0 to 0.85, 1 mg/kg): 240 µL⁻¹ and 360 µL⁻¹ and 140 µL⁻¹ and 200 µL⁻¹ and 180 µL⁻¹ and 170 µL⁻¹
- Abs MON (absolute monocytes), After ([2]; 3 days after single dose 1 mg/kg i.v., individual dogs #1-#6, reference range 0.165 to 0.85, 1 mg/kg): 230 µL⁻¹ and 300 µL⁻¹ and 240 µL⁻¹ and 490 µL⁻¹ and 380 µL⁻¹ and 620 µL⁻¹
- Abs LYM (absolute lymphocytes), After ([2]; 3 days after single dose 1 mg/kg i.v., individual dogs #1-#6, reference range 1.1 to 4.6, 1 mg/kg): 1610 µL⁻¹ and 2050 µL⁻¹ and 2220 µL⁻¹ and 1880 µL⁻¹ and 2300 µL⁻¹
- Abs SEG (absolute segmented neutrophils), After ([2]; 3 days after single dose 1 mg/kg i.v., individual dogs #1-#6, reference range 2.65 to 9.8, 1 mg/kg): 3.22 ×10^3/μl and 2.98 ×10^3/μl and 4 ×10^3/μl and 4.72 ×10^3/μl and 5.07 ×10^3/μl and 2.4 L ×10^3/μl
- WBC (white blood cells), After ([2]; 3 days after single dose 1 mg/kg i.v., individual dogs #1-#6, reference range 5.1 to 14, 1 mg/kg): 5.3 ×10^3/μl (2×) and 5.7 ×10^3/μl and 6.6 ×10^3/μl and 7.3 ×10^3/μl and 7.8 ×10^3/μl
- HCT (hematocrit), After ([2]; 3 days after single dose 1 mg/kg i.v., individual dogs #1-#6, reference range 41 to 60, 1 mg/kg): 45.2% and 47.2% (2×) and 45.6% and 47% and 48.1%
- Neutrophil finding 3 days after administration ([2]; dog #6, remained afebrile and clinically normal, cause uncertain): mild neutropenia
- pIC50 [3]: 5.40
